Test results as given in patent US20200237852A1, “Small Molecule Enhancers of Paneth Cell Function and Differentiation” (Massachusetts Institute of Technology, priority 2019, published 2020).

What was measured:
[1] = tested on: ISC-enriched organoids in ENR+CD; assay: 384-well secondary screen in ENR+CD incl. early vs. full treatment, secreted LYZ (LYZ.NS, LYZ.S); type: cell-based, C57BL/6 mice
Excerpt: We again assessed treatment effect size with replicate SSMD (using a difference between well replicates and median assay value for all same-plate control wells—see Materials and Methods, High-throughput screening: 384-well secondary screen format and early vs. full treatment analysis) and hits were considered statistically validated by an SSMD greater than the false-positive-derived cutoffs (βα1=0.89 for 8 replicates with alpha=0.05; see Materials and Methods, High-throughput screening: 384-well secondary screen format and early vs. full treatment analysis) for both LYZ.NS and LYZ.S assays (FIG. 7A). Per this new cutoff, 10 dose-treatment combinations corresponding to 7 small molecules were chosen as hits, with every passing dose-treatment having a greater than 0 ATP effect size.
For 384-well plate high-throughput screening, ISC-enriched organoids were passaged and split to single cells with TyrpLE (Thermo Fisher Scientific) and cultured for 2-3 days in ENR+CVY prior to transfer to a “2.5-D” 384-well plate culture system. To prepare for “2.5D” plating, cell-laden Matrigel and media were homogenized via mechanical disruption and centrifuged at 300 g for 3 min at 4° C. Supernatant was removed and the pellet washed and spun in basal culture medium repeatedly until the cloudy Matrigel above the cell pellet was gone. On the final wash, pellet was resuspended in basal culture medium, the number of organoids counted, and the cell pellet was resuspended in ENR+CD medium at ˜7 clusters/μL. 384-well plates were first filled with 10 μL of 70% Matrigel (30% basal media) coating in each well using a Tecan Evo 150 Liquid Handling Deck, and allowed to gel at 37° C. for 5 minutes. Then 30 μL of cell-laden media was plated at the center of each well of 384-well plates with the liquid handler, and the plates were spun down at 50 g for 1 minute to embed organoids on the Matrigel surface. Compound libraries were pinned into prepped cell plates using 50 nL pins into 30 μL media/well. Cells were cultured at 37° C. with 5% CO2 for six days in ENR+CD medium supplemented with the tested compounds with a media change at three days. On day six, lysozyme secretion and cell viability were assessed using Lysozyme Assay Kit (EnzChek) and CellTiter-Glo 3D Cell Viability Assay (Promega), respectively, according to the manufacturers' protocols. Briefly, screen plates were washed 3× with FluoroBrite basal media (2 mM GlutaMAX and 10 mM HEPES in FluoroBrite DMEM (Thermo Fisher Scientific)) using a BioTek 406 plate washer with 10 min incubations followed by a 1 min centrifugation at 200 g to settle media between washes. After removal of the third wash, 30 μL of non-stimulated FluoroBrite basal media was added to each screen well using a Tecan Evo 150 Liquid Handling Deck from a non-stimulated treatment master plate, and plates were incubated for 30 min at 37° C. After 30 minutes, the top 15 μL of media from each well of the screen plate was transferred to a non-stimulated LYZ assay plate containing 15 μL of 20× DQ LYZ assay working solution using a Tecan Evo 150 Liquid Handling Deck. The non-stimulated LYZ assay plate was covered, shaken for 10 min, incubated for 50 min at 37° C., then fluorescence measured (shake 10 s; […]/518 nm) using a Tecan M1000 Plate Reader. After the media transfer to the non-stimulated LYZ assay plate, the remaining media was removed from the screen plate and 30 μL of Stimulated FluoroBrite basal media (supplemented with 10 μM CCh) was added to each screen well using a Tecan Evo 150 Liquid Handling Deck from a stimulated treatment master plate, and plates were incubated for 30 min at 37° C. After 30 minutes, the top 15 μL of media from each well of the screen plate was transferred to a stimulated LYZ assay plate containing 15 μL of 20× DQ LYZ assay working solution using a Tecan Evo 150 Liquid Handling Deck. […]

[2] = tested on: mature PC (CD24-mid & LYZ+) and secretory precursor (CD24-hi) populations; assay: Flow cytometry profiling of organoids in 2.5-D (CD24, LYZ); type: cell-based, C57BL/6 mice; settings: 6-day ENR+CD+treatment, fraction of viable cells, n=3 bio. donors
Excerpt: Cells processed for flow cytometry were first gated to exclude potential debris or doublets (via widely accepted forward and side scatter gating), and subsequently gated for viability (via Zombie-violet viability dye exclusion), all viable cells were considered for CD24 & LYZ expression analysis. […] For flow cytometry profiling of the 6 validate small molecules, ISC-enriched ‘small clusters’ in 3D Matrigel culture were passaged to a “2.5D” 96-well plate culture system for six days of ENR, or ENR+CD+drug culture in the same manner as described previously with the exception of plating in 96-well plates prepared with a polymerized 70% Matrigel coating in each well. Plates were centrifuged at 50 g for 1 min at 4° C. to allow for cells to partially embed in Matrigel coating. Drugs were pinned into their respective wells using the Tecan from a drug stamp plate. Media was changed at day three, including pinning of the drug treatments. At day six, cells were washed 3× with basal media, then harvested from Matrigel by mechanical disruption in TrypLE Express to remove Matrigel and dissociate organoids to single cells. After vigorous pipetting and incubation at 37° C. for 20 mins, dissociated organoids were strained through a 96-well filter plate with a 30-40 μm filter (Pall) into an ultra low-bind 96-well plate (Costar) by centrifuging at 300×g for 3 mins at 4° C. The cell filtrate was centrifuged again at 300×g for 3 mins at 4° C. to pellet the cells. Cell pellets were resuspended in FACS buffer (2% FBS in PBS0), then transferred to an ultra low-bind 96-well plate for flow prep. Cells were stained with Zombie-violet viability dye (BioLegend) at 100× for viability staining and/or antibody staining solution. FITC-conjugated antibody for lysozyme and APC-conjugated antibody for CD24 were used at 100× dilution (BioLegend). Flow cytometry was performed using a LSR Fortessa (BD; Koch Institute Flow Cytometry Core at MIT). Flow cytometry data was analyzed using FlowJo X v10.1 software.

[3] = tested on: ISC-enriched organoids in ENR+CD; assay: 384-well primary screen of 6-day PC differentiation, secreted LYZ (LYZ.NS, LYZ.S); type: cell-based, C57BL/6 mice; settings: 6-day ENR+CD+library treatment; SSMD > 0.997 and z-scored FC > 1.282
Method: This library offers translational advantages as many of the molecules are either presently used in the clinic for a wide variety of conditions or have been used in clinical trials and animal models.
To prepare for “2.5D” plating, cell-laden Matrigel and media were homogenized via mechanical disruption and centrifuged at 300 g for 3 min at 4° C. Supernatant was removed and the pellet washed and spun in basal culture medium repeatedly until the cloudy Matrigel above the cell pellet was gone. On the final wash, pellet was resuspended in basal culture medium, the number of organoids counted, and the cell pellet was resuspended in ENR+CD medium at ˜7 clusters/μL. 384-well plates were first filled with 10 μL of 70% Matrigel (30% basal media) coating in each well using a Tecan Evo 150 Liquid Handling Deck, and allowed to gel at 37° C. for 5 minutes. […] Compound libraries were pinned into prepped cell plates using 50 nL pins into 30 μL media/well. Cells were cultured at 37° C. with 5% CO2 for six days in ENR+CD medium supplemented with the tested compounds with a media change at three days. On day six, lysozyme secretion and cell viability were assessed using Lysozyme Assay Kit (EnzChek) and CellTiter-Glo 3D Cell Viability Assay (Promega), respectively, according to the manufacturers' protocols. […]

[4] = tested on: conventional organoid (ENR); assay: 384-well screen in conventional organoid (ENR), secreted LYZ (LYZ.NS, LYZ.S); type: cell-based, C57BL/6 mice; settings: 6-day ENR+treatment, single treatment-dose
[5] = tested on: 6-day ENR+CD cells; assay: Cell pellet ATP after short-term (3-hour) stimulation, 2.5-D 96-well platform; type: cell-based, murine; settings: CCh: adj. p<0.01 for 10 and 100 μM doses
Excerpt: We first sought to profile the potential short-term actors, IFN-γ, LPS, and CCh, and see if with the added resolution of this first-of-its-kind PC platform, we might be able to determine high-resolution EC50's. To generate sufficient cells for plating out all necessary conditions we first expanded and enriched ISCs in traditional 3-D culture and subsequently differentiated for 4 days towards PCs (ENR+CD). Next, we passaged and plated these cells into 96-well plates as 2.5-D and continued differentiating for an additional 2 days in ENR+CD. On day 6 of differentiation, each well was then washed with basal media repeatedly and stimulated with its respective agent, with a measurement of supernatant LYZ paired to cell pellet ATP (FIG. 2A). This screen was repeated on three separate occasions with cells from three distinct murine donors and analyzed combined. We first wanted to determine the approximate standardized effect size of each treatment at each dose, which was accomplished through the replicate-based strictly standardized mean difference (SSMD), an effect size measure based on the statistics of contrast variables, and particularly useful in screening applications as it is a measure which takes into account both mean difference and variance in a single measure. […]

[6] = tested on: 6-day ENR+CD cells; assay: Short-term (3-hour) stimulation of LYZ secretion, 2.5-D 96-well platform; type: cell-based, murine; settings: 3-hour stimulation, across all tested doses
Excerpt: We first sought to profile the potential short-term actors, IFN-γ, LPS, and CCh, and see if with the added resolution of this first-of-its-kind PC platform, we might be able to determine high-resolution EC50's. To generate sufficient cells for plating out all necessary conditions we first expanded and enriched ISCs in traditional 3-D culture and subsequently differentiated for 4 days towards PCs (ENR+CD). Next, we passaged and plated these cells into 96-well plates as 2.5-D and continued differentiating for an additional 2 days in ENR+CD. On day 6 of differentiation, each well was then washed with basal media repeatedly and stimulated with its respective agent, with a measurement of supernatant LYZ paired to cell pellet ATP (FIG. 2A). This screen was repeated on three separate occasions with cells from three distinct murine donors and analyzed combined. We first wanted to determine the approximate standardized effect size of each treatment at each dose, which was accomplished through the replicate-based strictly standardized mean difference (SSMD), an effect size measure based on the statistics of contrast variables, and particularly useful in screening applications as it is a measure which takes into account both mean difference and variance in a single measure. […] In total, we see that our 2.5-D platform does provide a reasonable system for assessing and screening for potential short-term modulators of PC antimicrobial secretion.
Small intestinal crypts were isolated from C57BL/6 mice of both sexes, aged between three to six months in all experiments. Crypts were then cultured in a Matrigel culture system. Briefly, crypts were resuspended in basal culture medium (Advanced DMEM/F12 with 2 mM GlutaMAX and 10 mM HEPES; Thermo Fisher Scientific) at a 1:1 ratio with Corning™ Matrigel™ Membrane Matrix—GFR (Fisher Scientific) and plated at the center of each well of 24-well plates. […]

[7] = tested on: 6-day ENR+CD cells; assay: Long-term (48-hour) modulators of basal and CCh-induced LYZ secretion; type: cell-based, murine; settings: 48-hour treatment
Excerpt: We next sought to profile potential long-term modulators of differentiated PC survival and antimicrobial secretion, as well as gauge the interaction between long-term modulators and short-term induced secretion (via CCh). To accomplish this, we employed a similar set up as in the short-term experiment, with the exception that upon plating day 4 ENR+CD cells we additionally supplemented in either MDP, LPS, TNF-α, or IFN-γ for the additional 2 days in culture and assayed all conditions for both basal and CCh-induced LYZ secretion over 3 hours on day 6 of differentiation (FIG. 3A). […] Additionally, we see that the long-term addition reduces CCh-induced secretory function relative to the untreated control for all agents (FIG. 3D).
Small intestinal crypts were isolated from C57BL/6 mice of both sexes, aged between three to six months in all experiments. Crypts were then cultured in a Matrigel culture system. Briefly, crypts were resuspended in basal culture medium (Advanced DMEM/F12 with 2 mM GlutaMAX and 10 mM HEPES; Thermo Fisher Scientific) at a 1:1 ratio with Corning™ Matrigel™ Membrane Matrix—GFR (Fisher Scientific) and plated at the center of each well of 24-well plates. Following Matrigel polymerization, 500 μL of small intestinal crypt culture medium (basal media plus 100× N2 supplement, 50×B27 supplement; Life Technologies, 500× N-acetyl-L-cysteine; Sigma-Aldrich) supplemented with growth factors EGF—E (50 ng/mL, Life Technologies), Noggin—N (100 ng/mL, PeproTech) and R-spondin 1—R (500 ng/mL, PeproTech) and small molecules CHIR99021—C (3 μM, LC Laboratories) and valproic acid—V (1 mM, Sigma-Aldrich) was added to each well. ROCK inhibitor Y-27632—Y (10 μM, R&D Systems) was added for the first 2 days of culture. Cells were cultured at 37° C. with 5% CO2, and cell culture medium was changed every other day. After 6 days of culture, crypt organoids were isolated from Matrigel by mechanical dissociation. To expand enriched ISCs (ENR+CV/Y) or Paneth Cells (ENR+CD), organoids were cultured in 24-well plates, suspended in 40 uL 3-D gels (50-50 GFR MATRIGEL®, Basal culture media), with 500 uL of crypt media supplemented with necessary growth factors and small molecules. ROCK inhibitor (Y) was added for the first two days of ISC culture following reconstitution from cryopreservation or trypLE passaging to single cells. Cell culture medium was changed every other day. After 4 days of culture in ENR+CV, cell clusters were differentiated to PCs under the ENR+CD condition for 96-well short and long-term screens. For 384-well differentiation screens, 4-day ENR+CV clusters were passaged to single cells using trypLE, replated and expanded another 3 days in 3-D ENR+CVY and then passaged directly into screens.
For 96-well plate high-throughput screening, 4-day differentiated (ENR+CD) cell clusters in 3D Matrigel were transferred to a “2.5-D” 96-well plate culture system. Briefly, cell culture gel and medium were homogenized via mechanical disruption and centrifuged at 300 g for 3 min at 4° C. […] On the last repeat, pellet was resuspended in basal culture medium, the number of cell clusters counted, and centrifuged at 300 g for 3 min at 4° C. […] At end time points (following 2 days in culture and 3 hours of stimulation), lysozyme secretion and cell viability were assessed using Lysozyme Assay Kit and CellTiter-Glo 3D Cell Viability Assay (Promega), respectively, according to the manufacturers' protocols. […]

| Compound | biological potency compared with Bosutinib (LYZ assays) ([1]; 6-day ENR+CD+treatment) | validation in secondary screen (SSMD above cutoff for both LYZ.NS and LYZ.S) ([1]; 6-day ENR+CD+treatment vs ENR+CD+DMSO, cutoff 0.89, 8 replicates) | secretory precursor (CD24-hi) population relative to control [2] | primary screen hit status in LYZ.NS and LYZ.S assays [3] | LYZ.S reading versus ENR+DMSO [4] | LYZ.NS/ATP, early versus full treatment ([1]; ENR+CD, 240 nM) | ATP-normalized LYZ assays (LYZ.NS/ATP, LYZ.S/ATP), early versus full treatment ([1]; ENR+CD, across all doses) | effect on cellular ATP [5] | SSMD effect size as short-term modulator of LYZ secretion [6] | effect size of reduction of CCh-induced secretory function relative to untreated control ([7]; CCh-induced secretion over 3 hours on day 6) | change in basal LYZ secretion (SSMD effect) ([7]; basal secretion over 3 hours on day 6) |
| --- | --- | --- | --- | --- | --- | --- | --- | --- | --- | --- | --- |
| Cc1cn(-c2cc(NC(=O)c3ccc(C)c(Nc4nccc(-c5cccnc5)n4)c3)cc(C(F)(F)F)c2)cn1 [Nilotinib] | the more biologically potent | multiple validated doses | higher proportion | strongest LYZ assay-performing treatment-dose | significantly lower |  |  |  |  |  |  |
| NC(=O)c1ccc(-c2nc(-c3ccc4c(c3)OCO4)c(-c3ccccn3)[nH]2)cc1 [SB431542] |  |  |  | strongest LYZ assay-performing treatment-dose |  | significant (adj. p<0.05) difference between early and full treatment | suggestive trend across all doses |  |  |  |  |
| IFN-γ: cytokine interferon-gamma |  |  |  |  |  |  |  | no significant changes in cellular ATP | fairly weak effect sizes | fairly moderate | moderate increase in secretion |
